According to ChEMBL document CHEMBL5325436, “Discovery of ML210-Based glutathione peroxidase 4 (GPX4) degrader inducing ferroptosis of human cancer cells” (Eur J Med Chem, 2023):
Calls of active or inactive are those of the source. No cut-off for these calls is given here.

What was measured:
[1] = target: T1, Protein cereblon/Phospholipid hydroperoxide glutathione peroxidase GPX4 (Homo sapiens) (UniProt Q96SW2+P36969); experiment: PROTAC activity at CRBN/GPX4 in human HT-1080 cells assessed as induction of GPX4 degradation at 1 uM incubated for 24 hrs by Western blot analysis relative to control; assay type: cell-based
HT-1080 [2] = experiment: Antiproliferative activity against human HT-1080 cells assessed as reduction in cell viability incubated for 24 hrs by MTT assay; assay type: functional, cell-based; details: HT-1080, 24 h
[3] = Cytotoxicity against HEK293T cells assessed as reduction in cell viability measured after 24 hrs by MTT assay; assay type: toxicity, cell-based, HEK-293T; details: human
[4] = target: T2, Phospholipid hydroperoxide glutathione peroxidase GPX4 (Homo sapiens) (UniProt P36969); experiment: Induction of GPX4 degradation in human HT-1080 cells measured after 12 hrs relative to control; assay type: cell-based
T2 sequence (whole entry): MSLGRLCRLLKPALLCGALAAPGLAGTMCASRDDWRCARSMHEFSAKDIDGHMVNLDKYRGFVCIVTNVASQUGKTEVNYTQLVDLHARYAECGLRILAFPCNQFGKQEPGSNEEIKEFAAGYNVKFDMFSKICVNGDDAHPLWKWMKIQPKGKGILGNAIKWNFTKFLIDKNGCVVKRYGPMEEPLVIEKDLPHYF

[5] = target: T2, Phospholipid hydroperoxide glutathione peroxidase GPX4 (Homo sapiens); experiment: Induction of GPX4 degradation in human HT-1080 cells assessed as reduction in GPX4 protein level measured after 6 hrs; assay type: cell-based
Calu-1 = experiment: Antiproliferative activity against human Calu-1 cells assessed as reduction in cell viability incubated for 24 hrs by MTT assay; assay type: functional, cell-based; details: Calu-1, 24 h
[6] = Toxicity in Balb/c nude mouse xenografted with human HT-1080 cells assessed as body weight loss at 3 mg/kg, iv administered once every two days for 10 days; assay type: organism-based; details: in vivo, 240 h, time 10 day
A-375 = experiment: Antiproliferative activity against human A-375 cells assessed as reduction in cell viability incubated for 24 hrs by MTT assay; assay type: functional, cell-based; details: A-375, 24 h
HT-1080 [7] = experiment: Induction of ferroptosis in human HT-1080 cells assessed as increase in ROS accumulation at 0.3 uM measured at 6 to 12 hrs by fluorescence intensity based flow cytometric analysis; assay type: functional, cell-based; details: time 6-12 hrs
[8] = target: T3, Phospholipid hydroperoxide glutathione peroxidase GPX4 (Homo sapiens, UniProt P36969); experiment: Induction of GPX4 degradation in human HT-1080 cells measured after 24 hrs; assay type: cell-based
T3 sequence (P36969 whole entry): T2 sequence (whole entry)

HT-1080 [9] = experiment: Induction of ferroptosis in human HT-1080 cells assessed as increase in ROS accumulation at 0.3 uM measured upto 12 hrs by fluorescence intensity based flow cytometric analysis; assay type: functional, cell-based
[10] = Potency index, ratio of test compound IC50 to ML210 IC50 for cytotoxicity against HEK293T cells; assay type: toxicity, cell-based, HEK-293T; details: human, read-out: Ratio IC50
[11] = target: T1, Protein cereblon/Phospholipid hydroperoxide glutathione peroxidase GPX4 (Homo sapiens); experiment: PROTAC activity at CRBN/GPX4 in human HT-1080 cells assessed as induction of GPX4 degradation at 0.1 uM incubated for 12 hrs by Western blot analysis relative to control; assay type: cell-based
[12] = target: T1, Protein cereblon/Phospholipid hydroperoxide glutathione peroxidase GPX4 (Homo sapiens); experiment: PROTAC activity at CRBN/GPX4 in human HT-1080 cells assessed as induction of GPX4 degradation in the presence of lenalidomide by ligand competition assay; assay type: cell-based
HT-1080 [13] = experiment: Induction of ferroptosis in human HT-1080 cells assessed as cell death at 0.3 uM preincubated with liproxstin-1 for 2 hrs followed by compound addition and measured after 12 hrs by fluorescence intensity based flow cytometric analysis; assay type: functional
[14] = target: T1, Protein cereblon/Phospholipid hydroperoxide glutathione peroxidase GPX4 (Homo sapiens); experiment: PROTAC activity at CRBN/GPX4 in human HT-1080 cells assessed as induction of GPX4 degradation in the presence of ML210 by ligand competition assay; assay type: cell-based
[15] = target: T1, Protein cereblon/Phospholipid hydroperoxide glutathione peroxidase GPX4 (Homo sapiens); experiment: PROTAC activity at CRBN/GPX4 in human HT-1080 cells assessed as induction of GPX4 degradation at 0.1 uM incubated for 24 hrs by Western blot analysis relative to control; assay type: cell-based
[16] = target: T1, Protein cereblon/Phospholipid hydroperoxide glutathione peroxidase GPX4 (Homo sapiens); experiment: (§1) PROTAC activity at CRBN/GPX4 in human HT-1080 cells assessed as induction of GPX4 degradation incubated for 24 hrs by Western blot analysis; assay type: cell-based
[17] = target: Protein cereblon/Phospholipid hydroperoxide glutathione peroxidase GPX4 (Homo sapiens, UniProt P36969+Q96SW2); experiment: as §1; assay type: cell-based
[18] = target: T1, Protein cereblon/Phospholipid hydroperoxide glutathione peroxidase GPX4 (Homo sapiens); experiment: PROTAC activity at CRBN/GPX4 in human HT-1080 cells assessed as induction of GPX4 degradation at 0.1 uM preincubated with MG132 and Baf-A1 for 2 hrs followed by compound addition and measured after 12 hrs by Western blot analysis; assay type: cell-based
[19] = target: T1, Protein cereblon/Phospholipid hydroperoxide glutathione peroxidase GPX4 (Homo sapiens); experiment: PROTAC activity at CRBN/GPX4 in human HT-1080 cells assessed as induction of GPX4 degradation at 0.3 uM incubated for 24 hrs by Western blot analysis relative to control; assay type: cell-based
Mus musculus = experiment: In vivo PROTAC activity at CRBN/GPX4 in human HT-1080 cells xenografted in Balb/c nude mouse assessed as reduction in GPX4 level in tumor at 20 mg/kg,iv administered as single dose by immunoblotting analysis; assay type: functional, organism-based; details: time 6-48 hrs, TDE = time-dependent effect
[20] = target: T1, Protein cereblon/Phospholipid hydroperoxide glutathione peroxidase GPX4 (Homo sapiens); experiment: PROTAC activity at CRBN/GPX4 in human HT-1080 cells assessed as induction of GPX4 degradation at 1 uM by Western blot analysis; assay type: cell-based; details: time <= 24.0 hrs, TDE = time-dependent effect
HT-1080 [21] = experiment: Antiproliferative activity against human HT-1080 cells assessed as reduction in cell viability at 10 uM incubated for 24 hrs in the presence of liproxstin-1 by MTT assay; assay type: functional, cell-based
[22] = target: T1, Protein cereblon/Phospholipid hydroperoxide glutathione peroxidase GPX4 (Homo sapiens); experiment: Potency index, ratio of […] EC50 to test compound EC50 for PROTAC activity at CRBN/GPX4 in human HT-1080 cells; assay type: cell-based
[23] = Toxicity in Balb/c nude mouse xenografted with human HT-1080 cells assessed as body weight loss at 5 to 40 mg/kg, iv administered once every two days for 10 days; assay type: organism-based; details: in vivo, 240 h, dose 5-40 mg/kg, time 10 day

Cc1onc(C(=O)N2CCN(C(c3ccc(Cl)cc3)c3ccc(OCC(=O)N4CCC(CN5CCC(CN6CCC(Nc7cccc8c7C(=O)N(C7CCC(=O)NC7=O)C8=O)CC6)CC5)CC4)cc3)CC2)c1[N+](=O)[O-] (centres undefined)
Activity [1]: 25%
IC50 (HT-1080 [2]): 1200 nM

Cc1onc(C(=O)N2CCN(C(c3ccc(Cl)cc3)c3ccc(OCC(=O)N4CCN(CCCCCCCCCCNc5cccc6c5CN(C5CCC(=O)NC5=O)C6=O)CC4)cc3)CC2)c1[N+](=O)[O-] (centres undefined)
Activity [1]: 43%

Cc1onc(C(=O)N2CCN(C(c3ccc(Cl)cc3)c3ccc(OCC(=O)N4CCN(CCCCCCCNc5cccc6c5CN(C5CCC(=O)NC5=O)C6=O)CC4)cc3)CC2)c1[N+](=O)[O-] (centres undefined)
Activity [1]: 13%

Cc1onc(C(=O)N2CCN(C(c3ccc(Cl)cc3)c3ccc(Cl)cc3)CC2)c1[N+](=O)[O-]
IC50 at 24 h [3]: 200 nM
Activity [4]: > 60%
Activity [5]: Active
IC50 (Calu-1): 900 nM
Activity [6]: Toxic
IC50 (A-375): 300 nM
Activity (HT-1080 [7]): inactive
IC50 (HT-1080 [2]): 100 nM
EC50 [8]: 650 nM

Cc1onc(C(=O)N2CCN(C(c3ccc(Cl)cc3)c3ccc(OCC(=O)N4CCN(CCCCCCCCCCCNc5cccc6c5CN(C5CCC(=O)NC5=O)C6=O)CC4)cc3)CC2)c1[N+](=O)[O-] (centres undefined)
Activity [1]: 54%

Cc1onc(C(=O)N2CCN(C(c3ccc(Cl)cc3)c3ccc(OCC(=O)N4CCN(CCCCCCCCNc5cccc6c5CN(C5CCC(=O)NC5=O)C6=O)CC4)cc3)CC2)c1[N+](=O)[O-] (centres undefined)
Activity [1]: 36%

Cc1onc(C(=O)N2CCN(C(c3ccc(Cl)cc3)c3ccc(OCC(=O)N4CCC(CN5CCN(CCCNc6cccc7c6C(=O)N(C6CCC(=O)NC6=O)C7=O)CC5)CC4)cc3)CC2)c1[N+](=O)[O-] (centres undefined)
Activity (HT-1080 [9]): Active
IC50 at 24 h [3]: 1100 nM
selectivity ratio [10]: 5
Activity [11]: > 80%
Activity [12]: Active
Activity (HT-1080 [13]): inactive
Activity [1]: > 78%
IC50 (Calu-1): 300 nM
IC50 (A-375): 200 nM
Activity [14]: Active
Activity [15]: 82%
IC50 (HT-1080 [2]): 100 nM
Activity [16]: Dose-Dependent Effect
EC50 [17]: 30 nM
Activity [18]: inactive
Activity [19]: 100%
Activity (Mus musculus): Tde
Activity [20]: Tde
Activity (HT-1080 [21]): inactive
Ratio EC50 [22]: 22
Activity [23]: Non-Toxic

Cc1onc(C(=O)N2CCN(C(c3ccc(Cl)cc3)c3ccc(OCC(=O)N4CCC(CN5CCN(CCCCNc6cccc7c6C(=O)N(C6CCC(=O)NC6=O)C7=O)CC5)CC4)cc3)CC2)c1[N+](=O)[O-] (centres undefined)
Activity [1]: 70%
Activity [15]: 42%

Cc1onc(C(=O)N2CCN(C(c3ccc(Cl)cc3)c3ccc(OCC(=O)N4CCC(CN5CCN(CCNc6cccc7c6C(=O)N(C6CCC(=O)NC6=O)C7=O)CC5)CC4)cc3)CC2)c1[N+](=O)[O-] (centres undefined)
Activity [1]: > 80%
Activity [15]: 36%

Cc1onc(C(=O)N2CCN(C(c3ccc(Cl)cc3)c3ccc(OCC(=O)N4CCN(CCCCCCCCCCCCCNc5cccc6c5CN(C5CCC(=O)NC5=O)C6=O)CC4)cc3)CC2)c1[N+](=O)[O-] (centres undefined)
Activity [1]: 36%

Cc1onc(C(=O)N2CCN(C(c3ccc(Cl)cc3)c3ccc(OCC(=O)N4CCC(CN5CCC(CN6CCN(c7cccc8c7C(=O)N(C7CCC(=O)NC7=O)C8=O)CC6)CC5)CC4)cc3)CC2)c1[N+](=O)[O-] (centres undefined)
Activity [1]: 30%
IC50 (HT-1080 [2]): 1000 nM

Cc1onc(C(=O)N2CCN(C(c3ccc(Cl)cc3)c3ccc(OCC(=O)N4CCC(CN5CCN(CCCCCCNc6cccc7c6C(=O)N(C6CCC(=O)NC6=O)C7=O)CC5)CC4)cc3)CC2)c1[N+](=O)[O-] (centres undefined)
Activity [1]: > 80%
Activity [15]: 50%

Cc1onc(C(=O)N2CCN(C(c3ccc(Cl)cc3)c3ccc(OCC(=O)N4CCC(CN5CCN(CCCCCNc6cccc7c6C(=O)N(C6CCC(=O)NC6=O)C7=O)CC5)CC4)cc3)CC2)c1[N+](=O)[O-] (centres undefined)
Activity [1]: > 80%
Activity [15]: 33%

Cc1onc(C(=O)N2CCN(C(c3ccc(Cl)cc3)c3ccc(OCC(=O)N4CCN(CCCCCCCCCCCCCCNc5cccc6c5CN(C5CCC(=O)NC5=O)C6=O)CC4)cc3)CC2)c1[N+](=O)[O-] (centres undefined)
Activity [1]: < 5%

Cc1onc(C(=O)N2CCN(C(c3ccc(Cl)cc3)c3ccc(OCC(=O)N4CCN(CCCCCCCCCCCCNc5cccc6c5CN(C5CCC(=O)NC5=O)C6=O)CC4)cc3)CC2)c1[N+](=O)[O-] (centres undefined)
Activity [1]: 32%

Cc1onc(C(=O)N2CCN(C(c3ccc(Cl)cc3)c3ccc(OCC(=O)N4CCN(CCCCCCCCCNc5cccc6c5CN(C5CCC(=O)NC5=O)C6=O)CC4)cc3)CC2)c1[N+](=O)[O-] (centres undefined)
Activity [1]: 40%
IC50 (HT-1080 [2]): 300 nM
Activity [16]: Dose-Dependent Effect
EC50 [17]: 400 nM
Activity [20]: Tde
